What was measured:
[1] = test system: patients with Familial Adenomatous Polyposis (FAP); assay: Randomized, double-blind phase III trial in FAP patients: FAP-related events (efficacy); type: in vivo, human; conditions: for Mean time to first FRE: Kaplan-Meier estimated
Text: Patients were stratified by anatomic site with highest polyp burden and surgical status: (a) post colectomy with rectal or ileal pouch polyposis (longest projected time to first FRE); (b) with duodenal polyposis (intermediate projected time to first FRE); and (c) pre-colectomy (shortest projected time to first FRE) prior to randomization to minimize treatment imbalance.
A stratified randomization procedure was used with stratification based on FAP-related time-to-first-event prognosis (see FIG. 1). The event prognosis groups were represented by 1) best (i.e., longest projected time to first FAP-related event)—rectal/pouch polyposis (Post-colectomy (≥3 years S/P IRA or IPAA with >10 polyps; any polyps >5 mm excised at baseline)), 2) intermediate—duodenal polyposis (Spigelman Stage 3 or 4 or Spigelman Stage 3 or 4 down-staged to Spigelman 1 or 2 within the past 6 months), and 3) worst—pre-colectomy. If a subject has two or more of these disease sites, the most severe prognosis stratum was assigned for randomization (e.g. worst>intermediate>best). Since an individual may have more than one disease site involved, the trial assessed time to any defined FAP-related event in the subject as a whole. In order to minimize potential treatment arm imbalance a centralized randomization process was used to balance among treatment groups within prognostic strata.
Lower GI Endoscopy: Patients were evaluated via colonoscopy, flexible or rigid procto-sigmoidoscopy during the screening phase. Biopsies, ablations, and snare excisions at baseline were performed per the clinician's standard of care. If considered eligible based on inclusion criteria, a grossly normal mucosa biopsy was obtained for baseline polyamine measurement. Still and video documentation of the colon (vide infra) or the residual rectum or entire pouch was also obtained for archiving. Polyp size was determined by visual comparison with biopsy forceps that can measure 5.0-5.5 mm in the fully open position. All randomized patients with an intact colon or rectum/pouch had baseline and on-study lower GI endoscopy procedures as part of this trial.
Upper GI Endoscopy: The duodenum was evaluated by forward-viewing and/or side-viewing gastroscopes (with still and video documentation with closed and open biopsy forceps near mucosa). All randomized patients with a duodenum had baseline and on-study UGI endoscopy as part of this trial. Subjects stratified to the duodenal group must have duodenal biopsies of all polyps 1 cm or larger to determine HGD and histology required for determining Stage 3 or 4 Spigelman status.
FAP-related primary events by disease site were as follows: • 1. Pre-operative, intact colon: Disease progression indicating need for colectomy with IRA or total procto-colectomy • 2. Retained rectum or pouch events include one or more of the following: • a) Excisional intervention by endoscopic snare or trans-anal excision to remove any polyp ≥10 mm in size (per pathology report) and/or pathologic evidence of high grade dysplasia. • b) Disease progression indicating need for proctectomy or pouch resection • 3. Duodenal disease includes the following: • a) Progression in Spigelman Stage to more advanced stage (Stage 2, 3 or 4) • b) Disease progression indicating need for excisional intervention (sub-mucosal resection, trans-duodenal excision, ampullectomy, duodenectomy, Whipple procedure) • c) Development of cancer
At six month intervals (+/−two weeks), subjects underwent repeat upper and lower endoscopy. […] Video recordings of all procedures and qualitative assessments were compared to the exam 6 months prior.

[2] = test system: patients with Familial Adenomatous Polyposis (FAP); assay: Randomized, double-blind phase III trial in FAP patients: safety (adverse events); conditions: for Treatment-related serious adverse events: 1 patient each
tumor putrescine levels = conditions: eflornithine infusion, rat-tumor model; cited from earlier work
prostoglandin E2 (PGE2) = conditions: 300 mg/day, one month; cited from earlier work
[3] = disease site colon, number of subjects
[4] = disease site duodenum, number of subjects
[5] = disease site rectum and pouch, number of subjects
[6] = post-colectomy, rectal/ileal pouch stratum

## NCCCC(N)(C(=O)O)C(F)F (stereo not shown) [Eflornithine, 2,5-diamino-2-(difluoromethyl)pentanoic acid]
[1]; ITT population
  Kaplan-Meier estimated mean time to first FRE: 21.8 months
[1]; ITT population, cumulative
  Event-free rate: 59.6%
  FREs occurred, percent of patients: 40.4%
[1]; disease site colon
  Surgical FAP-related events, Colon: Event-free proportion: 76.9%
[1]; [3]
  Surgical FAP-related events, Colon: Colectomy: 0
  Surgical FAP-related events, Colon: Disease progression: 3
[1]; disease site duodenum
  Surgical FAP-related events, Duodenum: Event-free proportion: 72.7%
[1]; [4]
  Surgical FAP-related events, Duodenum: Disease progression: 3
  Surgical FAP-related events, Duodenum: Excisional intervention: 3
  Surgical FAP-related events, Duodenum: Spigelman stage progression: 12
[1]; disease site rectum and pouch
  Surgical FAP-related events, Rectum and Pouch: Event-free proportion: 87.2%
[1]; [5]
  Surgical FAP-related events, Rectum and Pouch: Disease progression: 5
  Surgical FAP-related events, Rectum and Pouch: Proctectomy/pouch resection: 1
[1]; duodenal polyposis stratum
  FRE type: Duodenal excision: 2
  FRE type: Duodenal excision and Spigelman stage progression: 1
  FRE type: Pouch resection: 2
  FRE type: Spigelman stage progression: 7
  FRE type: ≥10 mm polyp removed in rectum/pouch: 1
  Patients with FRE, %: (39.4) %
  Total FRE: 13
  Mean time to first FRE: 21.7 months
[1]; duodenal polyposis stratum, combination relative to the arm named
  Risk reduction versus combination: 24%
[1]; duodenal polyposis stratum, listed as eflornithine
  Patients with FRE, %: 39.4%
[1]; human, in vivo
  Progression of lower gastrointestinal polyposis: surgeries: 1
[1]; number of patients
  Patients with duodenal polyposis progression who underwent duodenal excisional procedures: 3
[1]; [6]
  FRE type: Pouch resection: 2
  FRE type: Proctocolectomy: 1
  FRE type: Spigelman stage progression: 1
  FRE type: ≥10 mm polyp removed in rectum/pouch: 1
  Patients with FRE, %: (41.7) %
  Total FRE: 5
  Mean time to first FRE: 15.7 months
[1]; post-colectomy, rectal/ileal pouch stratum, combination relative to the arm named
  Risk reduction versus combination: None
[1]; post-colectomy, rectal/ileal pouch stratum, listed as eflornithine
  Patients with FRE, %: 41.7%
[1]; pre-colectomy stratum
  FRE type: Colectomy: 2
  FRE type: Colectomy and Spigelman stage progression: 1
  FRE type: Spigelman stage progression: 2
  Patients with FRE, %: (41.7) %
  Total FRE: 5
  Mean time to first FRE: 19.7 months
[1]; pre-colectomy stratum, listed as eflornithine
  Patients with FRE, %: 41.7%
[1]; pre-colectomy stratum, risk reduction for FRE of the combination relative to the arm named
  Risk reduction versus combination: 80%
[1]; subjects with lower GI anatomy
  Event Rate of FAP-related Surgery Events in Lower GI: 8/57 (14%)
  Lower GI surgery events: Need colectomy: 3
  Lower GI surgery events: Need pouch resection: 4
  Lower GI surgery events: Need proctectomy: 1
  Lower GI surgery events: Total Surgical Events: 8
[1]; ≥10 mm in size and/or high grade dysplasia
  Progression of lower gastrointestinal polyposis: polypectomies: 2
[2]
  Discontinuations due to AEs, number of patients: 5 patients
  Discontinuations due to AEs, percent of patients: 8.8%
  TRAE reported by % of patients: 55.4%
  Treatment-related hearing adverse events: Hearing loss N: 1
  Treatment-related hearing adverse events: Tinnitus N: 1
  Treatment-related serious adverse events: stroke
[2]; listed as CPP-1X
  Treatment-related serious adverse events: Stroke
[2]; safety population
  Death: 0 n (%)
  Number of patients discontinuing due to a TRAE: 3 (5.4) n (%)
  Number of patients reporting TEAEs: 49 (87.5) n (%)
  Number of patients reporting TEAEs ≥ Grade 3: 17 (30.4) n (%)
  Number of patients reporting TRAE: Abdominal distension: 4 (7.1) n (%)
  Number of patients reporting TRAE: Abdominal pain: 4 (7.1) n (%)
  Number of patients reporting TRAE: Alopecia: 0 n (%)
  Number of patients reporting TRAE: Decreased appetite: 3 (5.4) n (%)
  Number of patients reporting TRAE: Depression: 1 (1.8) n (%)
  Number of patients reporting TRAE: Diarrhea: 5 (8.9) n (%)
  Number of patients reporting TRAE: Dizziness: 3 (5.4) n (%)
  Number of patients reporting TRAE: Dyspepsia: 3 (5.4) n (%)
  Number of patients reporting TRAE: Fatigue: 3 (5.4) n (%)
  Number of patients reporting TRAE: Flatulence: 3 (5.4) n (%)
  Number of patients reporting TRAE: Frequent bowel movements: 3 (5.4) n (%)
  Number of patients reporting TRAE: Gastritis erosive: 0 n (%)
  Number of patients reporting TRAE: Headache: 8 (14.3) n (%)
  Number of patients reporting TRAE: Hematochezia: 4 (7.1) n (%)
  Number of patients reporting TRAE: Nausea: 8 (14.3) n (%)
  Number of patients reporting TRAE: Pruritus: 2 (3.6) n (%)
  Number of patients reporting TRAE: Rash: 0 n (%)
  Number of patients reporting TRAE: Rectal hemorrhage: 3 (5.4) n (%)
  Number of patients reporting TRAE: Thrombocytopenia: 1 (1.8) n (%)
  Number of patients reporting TRAE: Tinnitus: 1 (1.8) n (%)
  Number of patients reporting TRAE: Upper abdominal pain: 2 (3.6) n (%)
  Number of patients reporting TRAE: Vomiting: 5 (8.9) n (%)
  Number of patients reporting TRAEs: 31 (55.4) n (%)
  Number of patients reporting TRSAEs: 1 (1.8) n (%)
Tumor putrescine levels
  Decrease in tumor putrescine levels: 90%

## CC(C)Cc1ccc(C(C)C(=O)O)cc1 (stereo not shown) [ibuprofen]
Prostoglandin E2 (PGE2)
  PGE2 levels in flat mucosa: significant decrease

— patent publication US10945981B2, “Methods for treating familial adenomatous polyposis” (CANCER PREVENTION PHARMACEUTICALS, INC., priority 2019, dated 2021)
